Assay results published in US9533987B2, “Heterocyclic derivates” (KALVISTA PHARMACEUTICALS LIMITED, priority 2013, dated 2017).

Experiments:
Human plasma kallikrein = Human plasma kallikrein (Homo sapiens (Human), UniProt P03952); experiment: Determination of the IC50 for plasma kallikrein (fluorogenic substrate H-DPro-Phe-Arg-AFC); type: biochemical; details: 37° C., read-out: IC50 (human PKaI)
Procedure: Determination of the IC50 for Plasma Kallikrein
(§1) Human plasma kallikrein (Protogen) was incubated at 37° C. with the fluorogenic substrate H-DPro-Phe-Arg-AFC and various concentrations of the test compound. Residual enzyme activity (initial rate of reaction) was determined by measuring the change in […] at 410 nm and the IC50 value for the test compound was determined.

Human KLK1 = Human KLK1 (Homo sapiens (Human), UniProt P06870); experiment: Determination of the IC50 for KLK1 (fluorogenic substrate H-DVal-Leu-Arg-AFC); type: biochemical; details: 37° C.
Procedure: Determination of the IC50 for KLK1
as §1, with “KLK1 (Callbiochem)” for “plasma kallikrein (Protogen)”, “H-DVal-Leu-Arg-AFC” for “H-DPro-Phe-Arg-AFC”

Human plasma kallikrein, sequence (P03952 391-638): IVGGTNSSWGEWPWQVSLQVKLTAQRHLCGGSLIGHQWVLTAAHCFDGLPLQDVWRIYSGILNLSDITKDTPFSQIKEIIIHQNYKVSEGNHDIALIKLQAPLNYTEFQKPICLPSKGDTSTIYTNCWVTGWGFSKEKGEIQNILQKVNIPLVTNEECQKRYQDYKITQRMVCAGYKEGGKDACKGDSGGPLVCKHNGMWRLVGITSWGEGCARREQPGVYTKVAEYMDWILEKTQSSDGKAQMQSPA
Human plasma kallikrein, sequence (P03952 20-390 partner): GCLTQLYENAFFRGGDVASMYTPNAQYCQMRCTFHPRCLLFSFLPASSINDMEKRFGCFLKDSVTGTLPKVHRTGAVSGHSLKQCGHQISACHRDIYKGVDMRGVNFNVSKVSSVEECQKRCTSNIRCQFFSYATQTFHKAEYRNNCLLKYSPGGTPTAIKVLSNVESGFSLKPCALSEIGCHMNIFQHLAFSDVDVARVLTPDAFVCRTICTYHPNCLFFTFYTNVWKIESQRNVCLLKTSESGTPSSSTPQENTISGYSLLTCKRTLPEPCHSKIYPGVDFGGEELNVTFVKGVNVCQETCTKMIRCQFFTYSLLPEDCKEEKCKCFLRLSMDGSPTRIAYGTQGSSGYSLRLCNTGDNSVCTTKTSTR
Human KLK1, sequence (P06870 25-262): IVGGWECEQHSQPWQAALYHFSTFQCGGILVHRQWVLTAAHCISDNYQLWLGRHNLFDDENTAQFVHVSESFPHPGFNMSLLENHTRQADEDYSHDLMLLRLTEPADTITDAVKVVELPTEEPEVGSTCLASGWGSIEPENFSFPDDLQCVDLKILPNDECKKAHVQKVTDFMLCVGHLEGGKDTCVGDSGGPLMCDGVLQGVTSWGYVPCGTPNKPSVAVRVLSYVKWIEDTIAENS

Row | Structure (SMILES) | IC50 (Human plasma kallikrein) [nM] | IC50 (Human KLK1) [nM]
1 | Cc1cc(C(=O)NCc2cnc3[nH]ccc3c2)c(C)n1Cc1csc(-c2ccccc2)n1 [Example 3, 2,5-Dimethyl-1-(2-phenyl-thiazol-4-ylmethyl)-1H-pyrrole-3-carboxylic acid (1H-pyrrolo[2,3-b]pyridin-5-ylmethyl)-amide] | 2690 | > 10000
2 | O=C(NCc1cnc2[nH]ccc2c1)c1cn(Cc2ccc(Cn3ccccc3=O)cc2)nc1C(F)(F)F [Example 7, 1-[4-(2-Oxo-2H-pyridin-1-ylmethyl)-benzyl]-3-trifluoromethyl-1H-pyrazole-4-carboxylic acid (1H-pyrrolo[2,3-b]pyridin-5-ylmethyl)-amide] | 5.38 | > 10000
3 | Cc1nc2[nH]ccc2c(C)c1CNC(=O)c1cn(Cc2ccc(Cn3ccccc3=O)cc2)nc1C(F)(F)F [Example 8, 1-[4-(2-Oxo-2H-pyridin-1-ylmethyl)-benzyl]-3-trifluoromethyl-1H-pyrazole-4-carboxylic acid (4,6-dimethyl-1H-pyrrolo[2,3-b]pyridin-5-ylmethyl)-amide] | 3.72 | > 10000
4 | Cc1cnn(Cc2ccc(Cn3c(C)cc(C(=O)NCc4ccc5c(N)nccc5c4)c3C)cc2)c1 [Example 9, 2,5-Dimethyl-1-[4-(4-methyl-pyrazol-1-ylmethyl)-benzyl]-1H-pyrrole-3-carboxylic acid (1-amino-isoquinolin-6-ylmethyl)-amide] | 14.3 | > 10000
5 | Cc1cnn(Cc2ccc(Cn3cnc(C(=O)NCc4ccc5c(N)nccc5c4)c3)cc2)c1 [Example 10, 1-[4-(4-Methyl-pyrazol-1-ylmethyl)-benzyl]-1H-imidazole-4-carboxylic acid (1-amino-isoquinolin-6-ylmethyl)-amide] | 2.4 | > 10000
6 | Cc1cnn(Cc2ccc(Cn3cc(C(=O)NCc4ccc5c(N)nccc5c4)c(CO)n3)cc2)c1 [Example 15, 3-Hydroxymethyl-1-[4-(4-methyl-pyrazol-1-ylmethyl)-benzyl]-1H-pyrazole-4-carboxylic acid (1-amino-isoquinolin-6-ylmethyl)-amide] | 1.17 | 6640
7 | Cc1cnn(Cc2ccc(Cn3cc(C(=O)NCc4ccc5c(N)nccc5c4)c(C#N)n3)cc2)c1 [Example 16, 3-Cyano-1-[4-(4-methyl-pyrazol-1-ylmethyl)-benzyl]-1H-pyrazole-4-carboxylic acid (1-amino-isoquinolin-6-ylmethyl)-amide] | 0.74 | 5730
8 | Cc1cnn(Cc2ccc(Cn3cc(C(=O)NCc4ccc5c(N)nccc5c4)c(C(=O)O)n3)cc2)c1 [Example 17, 4-[(1-Amino-isoquinolin-6-ylmethyl)-carbamoyl]-1-[4-(4-methyl-pyrazol-1-ylmethyl)-benzyl]-1H-pyrazole-3-carboxylic acid] | 1190 | > 10000
9 | Cc1cnn(Cc2ccc(Cn3cc(C(=O)NCc4ccc5c(N)nccc5c4)c(=O)[nH]3)cc2)c1 [Example 19, 1-[4-(4-Methyl-pyrazol-1-ylmethyl)-benzyl]-3-oxo-2,3-dihydro-1H-pyrazole-4-carboxylic acid (1-amino-isoquinolin-6-ylmethyl)-amide] | 994 | > 10000
10 | Cc1cnn(Cc2ccc(Cn3cc(C(=O)NCc4ccc5c(N)nccc5c4)c(-c4c(C)noc4C)n3)cc2)c1 [Example 20, 3-(3,5-Dimethyl-isoxazol-4-yl)-1-[4-(4-methyl-pyrazol-1-ylmethyl)-benzyl]-1H-pyrazole-4-carboxylic acid (1-amino-isoquinolin-6-ylmethyl)-amide] | 0.89 | > 10000
11 | Cc1cnn(Cc2ccc(Cn3cc(C(=O)NCc4ccc5c(N)nccc5c4)c(N4CCOCC4)n3)cc2)c1 [Example 21, 1-[4-(4-Methyl-pyrazol-1-ylmethyl)-benzyl]-3-morpholin-4-yl-1H-pyrazole-4-carboxylic acid (1-amino-isoquinolin-6-ylmethyl)-amide] | 6.46 | > 10000
12 | COc1cc(Cn2cc(C(=O)NCc3ccc4c(N)nccc4c3)c(C3CC3)n2)cnc1N1CCCC1 [Example 25, 3-Cyclopropyl-1-(5-methoxy-6-pyrrolidin-1-yl-pyridin-3-ylmethyl)-1H-pyrazole-4-carboxylic acid (1-amino-isoquinolin-6-ylmethyl)-amide] | 7.31 | 2210
13 | CCOc1ccc(Cn2cc(C(=O)NCc3ccc4c(N)nccc4c3)c(-c3ccccc3)n2)cn1 [Example 26, 1-(6-Ethoxy-pyridin-3-ylmethyl)-3-phenyl-1H-pyrazole-4-carboxylic acid (1-amino-isoquinolin-6-ylmethyl)-amide] | 205 | 4730
14 | CCOc1ccc(Cn2cc(C(=O)NCc3ccc4c(N)nccc4c3)c(NC(=O)COC)n2)cn1 [Example 27, 1-(6-Ethoxy-pyridin-3-ylmethyl)-3-(2-methoxy-acetylamino)-1H-pyrazole-4-carboxylic acid (1-amino-isoquinolin-6-ylmethyl)-amide] | 128 | 3200
15 | CCn1c(C(=O)NCc2ccc3c(N)nccc3c2)cc(C)c1Cc1csc(-c2ccccc2)n1 [Example 29, 1-Ethyl-4-methyl-5-(2-phenyl-thiazol-4-ylmethyl)-1H-pyrrole-2-carboxylic acid (1-amino-isoquinolin-6-ylmethyl)-amide] | 620 | > 10000
16 | Cc1cnn(Cc2ccc(Cn3cc(C(=O)NCc4ccc5c(N)nccc5c4)cn3)cc2)c1 [Example 31, 1-[4-(4-Methyl-pyrazol-1-ylmethyl)-benzyl]-1H-pyrazole-4-carboxylic acid (1-amino-isoquinolin-6-ylmethyl)-amide] | 2 | > 10000
17 | Cc1cnn(Cc2ccc(Cn3cc(C(=O)NCc4ccc5c(N)nccc5c4)c(-c4ccsc4)n3)cc2)c1 [Example 42, 1-[4-(4-Methyl-pyrazol-1-ylmethyl)-benzyl]-3-thiophen-3-yl-1H-pyrazole-4-carboxylic acid (1-amino-isoquinolin-6-ylmethyl)-amide] | 4.85 | 9050
18 | Nc1nccc2cc(CNC(=O)c3cnn(Cc4ccc(Cn5cccn5)cc4)c3N)ccc12 [Example 53, 5-Amino-1-(4-pyrazol-1-ylmethyl-benzyl)-1H-pyrazole-4-carboxylic acid (1-amino-isoquinolin-6-ylmethyl)-amide] | 16.8 | > 10000
19 | C[C@@H]1CCN(c2ccc(Cn3cc(C(=O)NCc4ccc5c(N)nccc5c4)c(C(F)(F)F)n3)cn2)C1 [Example 58, 1-[6-((R)-3-Methyl-pyrrolidin-1-yl)-pyridin-3-ylmethyl]-3-trifluoromethyl-1H-pyrazole-4-carboxylic acid (1-amino-isoquinolin-6-ylmethyl)-amide] | 13.3 | 3110
20 | Nc1nccc2cc(CNC(=O)c3cn(Cc4cnc(N5CCCC5)nc4)nc3C(F)(F)F)ccc12 [Example 64, 1-(2-Pyrrolidin-1-yl-pyrimidin-5-ylmethyl)-3-trifluoromethyl-1H-pyrazole-4-carboxylic acid (1-amino-isoquinolin-6-ylmethyl)-amide] | 10.4 | 2790
21 | Nc1nccc2cc(CNC(=O)c3cn(Cc4cnc(N5CCCC5)cn4)nc3C(F)(F)F)ccc12 [Example 65, 1-(5-Pyrrolidin-1-yl-pyrazin-2-ylmethyl)-3-trifluoromethyl-1H-pyrazole-4-carboxylic acid (1-amino-isoquinolin-6-ylmethyl)-amide] | 14.9 | 960
22 | CC(C)Oc1cc(Cn2cc(C(=O)NCc3ccc4c(N)nccc4c3)c(C(F)(F)F)n2)ccn1 [Example 66, 1-(2-Isopropoxy-pyridin-4-ylmethyl)-3-trifluoromethyl-1H-pyrazole-4-carboxylic acid (1-amino-isoquinolin-6-ylmethyl)-amide] | 281 | > 10000
23 | Nc1nccc2cc(CNC(=O)c3cn(Cc4ccc(N5CCC(CO)C5)nc4)nc3C(F)(F)F)ccc12 (stereo not drawn) [Example 69, 1-[6-(3-Hydroxymethyl-pyrrolidin-1-yl)-pyridin-3-ylmethyl]-3-trifluoromethyl-1H-pyrazole-4-carboxylic acid (1-amino-isoquinolin-6-ylmethyl)-amide] | 32.3 | 4740
24 | Nc1nccc2cc(CNC(=O)c3cn(Cc4ccc(N5CC[C@@H](CO)C5)nc4)nc3C(F)(F)F)ccc12 [Example 70, 1-[6-((R)-3-Hydroxymethyl-pyrrolidin-1-yl)-pyridin-3-ylmethyl]-3-trifluoromethyl-1H-pyrazole-4-carboxylic acid (1-amino-isoquinolin-6-ylmethyl)-amide] | 66.9 | 4910
25 | CCCOc1ccc(Cn2cc(C(=O)NCc3ccc4c(N)nccc4c3)c(C(F)(F)F)n2)cn1 [Example 71, 1-(6-Propoxy-pyridin-3-ylmethyl)-3-trifluoromethyl-1H-pyrazole-4-carboxylic acid (1-amino-isoquinolin-6-ylmethyl)-amide] | 63.6 | > 10000
26 | CCC(C)Oc1ccc(Cn2cc(C(=O)NCc3ccc4c(N)nccc4c3)c(C(F)(F)F)n2)cn1 (stereo not drawn) [Example 72, 1-(6-sec-Butoxy-pyridin-3-ylmethyl)-3-trifluoromethyl-1H-pyrazole-4-carboxylic acid (1-amino-isoquinolin-6-ylmethyl)-amide] | 118 | > 10000
27 | Nc1nccc2cc(CNC(=O)c3cn(Cc4cnc(N5CCCC5)c(F)c4)nc3C(F)(F)F)ccc12 [Example 73, 1-(5-Fluoro-6-pyrrolidin-1-yl-pyridin-3-ylmethyl)-3-trifluoromethyl-1H-pyrazole-4-carboxylic acid (1-amino-isoquinolin-6-ylmethyl)-amide] | 22.6 | 1570
